Patent US20190085334A1, “TREATMENT OF NEUROINFLAMMATION IN NEUROLOGICAL DISORDERS” (Board of Trustees of Michigan State University, priority 2017, published 2019)

Key:
CXCL10 = target: T1, CXCL10 (Homo sapiens, UniProt P02778); conditions: monoclonal antibodies to reduce CXCL10; cited from earlier work
T1 sequence (P02778 22-98): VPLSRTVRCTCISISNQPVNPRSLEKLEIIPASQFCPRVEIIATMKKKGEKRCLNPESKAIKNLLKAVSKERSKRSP

isolated neutrophils = experiment: Cytokine/chemokine release from isolated neutrophils, BioPlex assay; format: cell-based, human
Experimental: (§1) Cells are plated at 3×10^5 cells/well for PBMC and isolated monocyte experiments, and 1×10^5 cell/well for isolated neutrophil experiments, in 96-well plates. Cells are cultured in complete RPMI (RPMI 1640, 10% FBS, 1×PSF). For cross-linking experiments 10 μg/mL anti-SLAMF7 mAb or SLAMF7-Fc is added to a sterile, high-binding 96-well cell culture plate O/N at 4° C. For all in vitro flow cytometry experiments, cells are cultured in the presence of stimuli for 17-18 h. In the monocyte maturation assay as shown in FIG. 18E the cells are stimulated with only 25 IU/mL IFNα for exactly 24 h. Small molecule inhibitors are added 45-60 min before IFNα for all relevant experiments. For experiments involving intracellular staining, BD GolgiPlug is added for the final 5 h. NK92 cells are purchased from ATCC and cultured as indicated by manufacturer.
For analysis of cell culture, supernatant and plasma samples 80 μL of media or plasma is used, undiluted, and the assay is run per manufacturer's instructions (Bio-Rad, Hercules, Calif.) via Luminex 100 technology. […]
(§2) CD14^+ monocytes are isolated from PBMCs via positive selection using CD14 Microbeads (Miltenyi Biotec) per manufacturer's instructions. Purity is consistently greater than 90% as assessed by flow cytometry. […] Purity is consistently greater than 98% as assessed by flow cytometry.

[1] = test system: SLAMF7 expression on neutrophils; experiment: SLAMF7 expression on neutrophils by flow cytometry; format: cell-based, human; conditions: presence and absence of IFNα stimulation
Experimental: as §1
Cells are prepared and stained as previously described. Intracellular staining is performed using the BD fixation/permeabilization kit (BD Biosciences) per manufacturer's instructions. […] Samples are analyzed on either a BD LSR II or BD FACSCanto. […]
as §2

[2] = test system: SLAMF7 expression on monocytes; experiment: SLAMF7 expression on PBMCs and monocytes by flow cytometry; format: cell-based, human
Experimental: as §1
(§3) Cells are prepared and stained as previously described. Intracellular staining is performed using the BD fixation/permeabilization kit (BD Biosciences) per manufacturer's instructions. Transcription factor staining is performed with the Transcription Factor Buffer Set (BD Pharmingen) per manufacturer's instructions. Samples are analyzed on either a BD LSR II or BD FACSCanto. LIVE/DEAD staining with Aqua fixable stain (ThermoFisher) is included during initial experiments and cell viability is verified to be greater than 90%.

[3] = test system: CXCL10 production from monocytes; experiment: CXCL10 production from interferon-stimulated monocytes, intracellular staining on flow cytometry; format: cell-based, human
Experimental: as §1, §3

isolated monocytes = experiment: qRT-PCR of chemokine and ISG mRNA in isolated monocytes; format: cell-based, human; conditions: IFNα and SLAMF7 cross-linking; SHP1/2 inhibitor 10 μM
Experimental: Isolated monocytes are plated in 96-well plates at 3×10^5 cells/well and stimulated as indicated for 4 h. Cells are harvested and placed into Trizol (ThermoFisher) and RNA is isolated per manufacturer's instructions. RNA is reverse transcribed with SuperStrand First Strand Synthesis Kit III (Invitrogen) per manufacturer's instructions and analyzed on a QuantStudio7 system (ThermoFisher). GAPDH is used as a housekeeping gene and the ΔΔCt method is used for analysis.

[4] = SLAMF7-stimulated cells, IFNα, 100 nM

BMS-936557: anti-CXCL10 monoclonal antibody (Brisol-Myers Squibb)
anti-inflammatory activity (CXCL10): limited anti-inflammatory activity

IFNα
CXCL10 release from neutrophils (isolated neutrophils; IFNα by itself, neutrophils from HCs and HIV+ patients): can induce CXCL10 release
SLAMF7 expression on neutrophils [1]: unable to upregulate SLAMF7
SLAMF7 response of CD14+ monocytes ([2]; CD14+ monocytes, IFNα 100 IU/mL): most robust SLAMF7 response
percent of SLAMF7+ PBMCs ([2]; total PBMCs from HIV+ patients, IFNα 100 IU/mL): minor, but significant increase

O=S(=O)(O)c1ccc2cc(N=Nc3cc(S(=O)(=O)O)c4cccnc4c3O)ccc2c1 [NSC87877]
recovery of CXCL10 expression ([3]; monocytes stimulated with IFNα and SLAMF7 cross-linking, pre-treatment 10 μM): does not result in recovery of CXCL10 expression
involvement of SHP1/2 in alpha chemokine inhibition (isolated monocytes): not involved in alpha chemokine inhibition

CC(C)C[C@H](NC(=O)[C@H](Cc1ccccc1)NC(=O)c1cnccn1)B(O)O [Bortezomib]
CXCL10 production [3, 4]: further decreases CXCL10 production
recovery of CXCL10 expression [3, 4]: does not result in recovery of CXCL10 expression
SLAMF7 expression on monocytes ([2]; with IFNα, 100 nM): acts synergistically with IFNα to upregulate SLAMF7 expression

lipopolysaccharide [LPS]
CXCL10 release from neutrophils (isolated neutrophils; LPS added to IFNα): enhanced

O=C(/C=C/c1ccc(CN(CCO)CCc2c[nH]c3ccccc23)cc1)NO [Dacinostat]
IFNα-mediated SLAMF7 up-regulation ([2]; classical monocytes, IFNα plus HDACi): prevents IFNα-mediated SLAMF7 up-regulation

CC(C)CCC[C@@H](C)[C@H]1CC[C@H]2[C@@H]3CCC4C[C@H](N)CC[C@]4(C)[C@H]3CC[C@]12C (some centres unmarked) [3AC]
recovery of CXCL10 expression ([3]; monocytes stimulated with IFNα and SLAMF7 cross-linking, pre-treatment 5 μM): does not result in recovery of CXCL10 expression

CC(C)(C)C(=O)Nc1ccc2c(c1)C(=O)C(=O)c1ccccc1-2 [CAS 345630-40-2]
rescue of CXCL10 production ([3]; IFNα and SLAMF7 cross-linking, pre-treatment 1 μM): fails to rescue CXCL10 production
